Experimental data published in US9433607B2, “Composition for prevention or treatment of cancer comprising N-methylenenaphtho[2,1-b]furan-2-carbohydrazide derivatives as an active ingredient” (KOREA RESEARCH INSTITUTE OF BIOSCIENCE AND BIOTECHNOLOGY, priority 2012, dated 2016).

How the values were obtained:
NCl-H460 = test: Anti-proliferative MTT assay, NCl-H460; assay type: cell-based; settings: 96 h, NCl-H460, Lung, 4 days
Procedure: (§1) Various cancer cell lines (rectal cancer, prostate cancer, breast cancer, lung cancer, stomach cancer, liver cancer, leukemia, brain cancer, and glioma cell lines) were cultured in microtiter plate (1-3×10^3 cells/well), to which ethyl(2-methyl-3{(E)-[(naphtho[2,1-b]furan-2-ylcarbonyl)hydrazono]methyl}-1H-indole-1-yl)acetate was treated. The culture continued for 4 days. Cytotoxicity was investigated by MTT assay by the same manner as described in Example <1-2>. IC50 was calculated by long-dose response curve. The data presents the mean value obtained from the assay performed in triplicate.

HL60 = test: Anti-proliferative MTT assay, HL60; assay type: cell-based; settings: Homo sapiens, HL-60, 96 h, HL60, Blood, 4 days
Procedure: as §1

HT-29 = test: Anti-proliferative MTT assay, HT-29; assay type: cell-based; settings: Homo sapiens, 96 h, HT-29, Large intestine, 4 days
Procedure: as §1

K562/ADR = test: Cytotoxicity MTT assay, multi-drug resistant K562/ADR; assay type: cell-based
Procedure: (§2) Particularly, K562, MCF7 (Bio-Evaluation Center, Korea Research Institute of Bioscience and Biotechnology, Korea), and the multi-drug resistant cell lines thereof, K562/ADR and MCF7/ADR (Bio-Evaluation Center, Korea Research Institute of Bioscience and Biotechnology, Korea) were cultured in microtiter plate (1-3×10^3 cells/well). Then, the cells were treated with ethyl(2-methyl-3{(E)-[(naphtho[2,1-b]furan-2-ylcarbonyl)hydrazono]methyl}-1H-indole-1-yl)acetate, doxorubicin, or taxol, followed by culture for 4 days. Cytotoxicity was investigated by MTT assay by the same manner as described in Example <1-2>. IC50 was calculated by long-dose response curve. The data presents the mean value obtained from the assay performed in triplicate (Table 3).
(§3) The resistance factor of the multi-drug resistant cell line indicates the ratio of IC50 of the multi-drug resistant cell line to IC50 of the parent cell line showing no resistance, which was presented as a number in the bracket.

MDA-MB-231 = test: Anti-proliferative MTT assay, MDA-MB-231; assay type: cell-based; settings: Homo sapiens, 96 h, MDA-MB-231, Breast, 4 days
Procedure: as §1

HCT116 = test: Anti-proliferative MTT assay, HCT116; assay type: cell-based; settings: Homo sapiens, HCT-116, 96 h, HCT116, Large intestine, 4 days
Procedure: as §1

K562 = test: Cytotoxicity MTT assay, K562; assay type: cell-based; settings: Homo sapiens, 96 h, 4 days
Procedure: as §2

MCF7/ADR = test: Cytotoxicity MTT assay, multi-drug resistant MCF7/ADR; assay type: cell-based
Procedure: as §2, §3

purified tubulin = test: In vitro tubulin polymerization, degree of turbidity; assay type: biochemical; settings: 5 μM, purified tubulin and GTP, 340 nm
Procedure: To measure the polymerization of tubulin in vitro, the buffer containing the purified tubulin and GTP was treated with ethyl(2-methyl-3{(E)-[(naphtho[2,1-b]furan-2-ylcarbonyl)hydrazono]methyl}-1H-indole-1-yl)acetate at the concentration of 5 μM. DMSO, and the equivalent Taxol and vinblastine were used as the controls. The polymerization of tubulin into microtubules was determined if the degree of turbidity was 340 nm.

A549 = test: Anti-proliferative MTT assay, A549; assay type: cell-based; settings: Homo sapiens, 96 h, A549, Lung, 4 days
Procedure: as §1

HeLa cell line = test: Anti-proliferative activity in HeLa cells (MTT assay); assay type: cell-based; settings: Homo sapiens
Procedure: Particularly, HeLa cell line (ATCC, USA) was treated with the compounds of Table 1 respectively, and then IC50 (the half maximal inhibitory concentration) was investigated (Table 1).
HeLa cells were treated with 100 nM, 250 nM, 500 nM and 1 μM of ethyl(2-methyl-3{(E)-[(naphtho[2,1-b]furan-2-ylcarbonyl)hydrazono]methyl}-1H-indole-1-yl)acetate or DMSO for 4 days. Then, the cell growth was confirmed by MTT assay. All the obtained numbers were calculated by normalizing the value of Day 0. The data presents the mean value obtained from the assay performed in triplicate.
Particularly, HeLa cells were distributed in a 96-well plate at the density of 2×10^3 cells/well. The cells were treated with DMSO or the compound of the present invention, to which MTT reagent was added at the concentration of 10 μl/well. 2 hours later, OD450 was measured, which became the value of Day 0. 4 days later, MTT reagent was added thereto again. 2 hours later, OD450 was measured. The data presents the mean value obtained from the assay performed in triplicate.

MCF7 = test: Cytotoxicity MTT assay, MCF7; assay type: cell-based; settings: Homo sapiens, 96 h, 4 days
Procedure: as §2

SNB-75 = test: Anti-proliferative MTT assay, SNB-75; assay type: cell-based; settings: Homo sapiens, 96 h, SNB-75, Brain, 4 days
Procedure: as §1

Hep3B = test: Anti-proliferative MTT assay, Hep3B; assay type: cell-based; settings: Homo sapiens, 96 h, Liver, 4 days
Procedure: as §1

CCOC(=O)Cn1c(C)c(/C=N/NC(=O)c2cc3c(ccc4ccccc43)o2)c2ccccc21 [STK899704]
IC50 (NCl-H460): 0.806 µM | IC50 (HL60): 0.563 µM | IC50 (HT-29): 0.701 µM | IC50 (K562/ADR; Homo sapiens, 96 h, K562/ADR, MTT, 4 days): 285 µM | resistance factor (number in the bracket) (K562/ADR; ratio of IC50 of K562/ADR to IC50 of parent K562): 0.6 | IC50 (MDA-MB-231): 0.543 µM | IC50 (HCT116): 0.717 µM | IC50 (K562): 0.45 µM | IC50 (MCF7/ADR; Homo sapiens, NCI/ADR-RES, 96 h, MCF7/ADR, MTT, 4 days): 225 µM | resistance factor (number in the bracket) (MCF7/ADR; ratio of IC50 of MCF7/ADR to IC50 of parent MCF7): 0.2 | degree of turbidity (tubulin polymerization) compared with Taxol (purified tubulin): the degree of turbidity was lower | IC50 (A549): 0.843 µM | IC50 (HeLa cell line; 96 h, HeLa, Cervix, MTT, 4 days): 0.26 µM | IC50 (HeLa cell line; HeLa cell line): 0.26 µM | IC50 (MCF7): 1060 µM | IC50 (SNB-75): 0.588 µM | IC50 (Hep3B): 0.683 µM
